Measured values as given in patent US20240360082A1, “SUBSTITUTED PYRIDONE COMPOUNDS USEFUL TO TREAT ORTH[…]” (priority 2021, published 2024).

Target: influenza A virus minigenome (PB2, PB1, PA, NP proteins) (UniProt P04665)
Assay type: cell-based
Settings: read-out: RNP_ Hubei B IC50

influenza A virus minigenome (PB2, PB1, PA, NP proteins), sequence (P04665 whole entry): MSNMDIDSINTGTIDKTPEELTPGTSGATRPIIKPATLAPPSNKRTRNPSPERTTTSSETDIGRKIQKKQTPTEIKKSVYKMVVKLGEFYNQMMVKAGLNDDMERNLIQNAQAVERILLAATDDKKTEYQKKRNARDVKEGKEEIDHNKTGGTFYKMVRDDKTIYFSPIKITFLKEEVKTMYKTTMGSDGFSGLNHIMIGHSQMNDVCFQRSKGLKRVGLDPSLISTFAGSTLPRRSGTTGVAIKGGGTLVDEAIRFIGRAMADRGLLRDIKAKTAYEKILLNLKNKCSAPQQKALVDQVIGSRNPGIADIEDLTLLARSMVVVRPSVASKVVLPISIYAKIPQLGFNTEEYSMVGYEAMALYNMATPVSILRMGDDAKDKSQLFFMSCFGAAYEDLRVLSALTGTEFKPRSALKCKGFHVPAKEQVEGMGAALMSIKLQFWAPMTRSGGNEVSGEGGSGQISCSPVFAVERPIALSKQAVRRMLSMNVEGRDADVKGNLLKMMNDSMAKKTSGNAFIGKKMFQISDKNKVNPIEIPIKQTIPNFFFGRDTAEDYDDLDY

SMILES	IC50 [µM]
NC(=O)c1cc(-c2ccc(OCC3COCCN3C3CC3)cc2)c(C(F)(F)F)[nH]c1=O (centres unmarked) [Example 248, 5-(4-((4-cyclopropylmorpholin-3-yl)methoxy)phenyl)-2-oxo-6-(trifluoromethyl)-1,2-dihydropyridine-3-carboxamide]	5 to 10
NC(=O)c1cc(-c2ccc(OCC3COC4(CC4)CO3)cc2)c(C(F)(F)F)[nH]c1=O (racemic) [Example 338, 5-(4-((4,7-dioxaspiro[2.5]octan-6-yl)methoxy)phenyl)-2-oxo-6-(trifluoromethyl)-1,2-dihydropyridine-3-carboxamide]	10 to 25
NC(=O)c1cc(-c2ccc(OCC3COCC(COC4CC(F)(F)C4)O3)cc2)c(C(F)(F)F)[nH]c1=O (single isomer, unassigned) [Example 366, 5-(4-((6-((3,3-difluorocyclobutoxy)methyl)-1,4-dioxan-2-yl)methoxy)phenyl)-2-oxo-6-(trifluoromethyl)-1,2-dihydropyridine-3-carboxamide]	5 to 10
C[C@]12O[C@@H](COc3ccc(-c4cc(C(N)=O)c(=O)[nH]c4C(F)(F)F)cc3)CO[C@H]1C2(F)F [Example 397, 5-(4-(((1S,3R,6R)-7,7-difluoro-1-methyl-2,5-dioxabicyclo[4.1.0]heptan-3-yl)methoxy)phenyl)-2-oxo-6-(trifluoromethyl)-1,2-dihydropyridine-3-carboxamide]	5 to 10
CN(C)C(=O)[C@@]1(C)COC[C@@H](COc2ccc(-c3cc(C(N)=O)c(=O)[nH]c3C(F)(F)F)cc2)O1 [Example 409, 5-(4-(((2S,6R)-6-(dimethylcarbamoyl)-6-methyl-1,4-dioxan-2-yl)methoxy)phenyl)-2-oxo-6-(trifluoromethyl)-1,2-dihydropyridine-3-carboxamide]	5 to 10
C[C@]12O[C@H](COc3ccc(-c4cc(C(N)=O)c(=O)[nH]c4C(F)(F)F)cc3)CO[C@H]1C2(F)F [Example 394, 5-(4-(((1S,3S,6R)-7,7-difluoro-1-methyl-2,5-dioxabicyclo[4.1.0]heptan-3-yl)methoxy)phenyl)-2-oxo-6-(trifluoromethyl)-1,2-dihydropyridine-3-carboxamide]	5 to 10
NC(=O)c1cc(-c2ccc(OCC3CCCO3)cc2)c(C(F)(F)F)[nH]c1=O (centres unmarked) [Example 232, 2-oxo-5-(4-((tetrahydrofuran-2-yl)methoxy)phenyl)-6-(trifluoromethyl)-1,2-dihydropyridine-3-carboxamide]	10 to 25
CN1[C@@H](COc2ccc(-c3cc(C(N)=O)c(=O)[nH]c3C(F)(F)F)cc2)COC[C@@H]1C1CC1 [Example 210, 5-(4-(((3R,5S)-5-cyclopropyl-4-methylmorpholin-3-yl)methoxy)phenyl)-2-oxo-6-(trifluoromethyl)-1,2-dihydropyridine-3-carboxamide]	5 to 10
Cn1nc(C2CC2)cc1COc1ccc(-c2cc(C(N)=O)c(=O)[nH]c2C(F)(F)F)cc1 [Example 263, 5-(4-((3-cyclopropyl-1-methyl-1H-pyrazol-5-yl)methoxy)phenyl)-2-oxo-6-(trifluoromethyl)-1,2-dihydropyridine-3-carboxamide]	25 to 50
NC(=O)c1cc(-c2ccc(OCC3COCCO3)c(C3CC3)c2)c(C(F)(F)F)[nH]c1=O (centres unmarked) [Example 243, 5-(4-((1,4-dioxan-2-yl)methoxy)-3-cyclopropylphenyl)-2-oxo-6-(trifluoromethyl)-1,2-dihydropyridine-3-carboxamide]	1 to 5
NC(=O)c1cc(-c2ccc(OCC3COCC(C4CCCC4)O3)cc2)c(C(F)(F)F)[nH]c1=O (racemic) [Example 333, 5-(4-((6-cyclopentyl-1,4-dioxan-2-yl)methoxy)phenyl)-2-oxo-6-(trifluoromethyl)-1,2-dihydropyridine-3-carboxamide]	1 to 5
NC(=O)c1cc(-c2ccc(OCC3C[C@@H]4CC[C@H]3O4)cc2)c(C(F)(F)F)[nH]c1=O (single isomer, unassigned) [Example 314, 5-(4-((7-oxabicyclo[2.2.1]heptan-2-yl)methoxy)phenyl)-2-oxo-6-(trifluoromethyl)-1,2-dihydropyridine-3-carboxamide]	10 to 25
NC(=O)c1cc(-c2ccc(OCC3COC(CF)CO3)cc2)c(C(F)(F)F)[nH]c1=O (single isomer, unassigned) [Example 341, 5-(4-((5-(fluoromethyl)-1,4-dioxan-2-yl)methoxy)phenyl)-2-oxo-6-(trifluoromethyl)-1,2-dihydropyridine-3-carboxamide]	5 to 10
CCN1CC(COc2ccc(-c3cc(C(N)=O)c(=O)[nH]c3C(F)(F)F)cc2)OC1=O (centres unmarked) [Example 234, 5-(4-((3-ethyl-2-oxooxazolidin-5-yl)methoxy)phenyl)-2-oxo-6-(trifluoromethyl)-1,2-dihydropyridine-3-carboxamide]	25 to 50
CCn1cc(COc2ccc(-c3cc(C(N)=O)c(=O)[nH]c3C(F)(F)F)cc2)cn1 [Example 222, 5-(4-((1-ethyl-1H-pyrazol-4-yl)methoxy)phenyl)-2-oxo-6-(trifluoromethyl)-1,2-dihydropyridine-3-carboxamide]	25 to 50
CC1CN(C(=O)OC(C)(C)C)CC1COc1ccc(-c2cc(C(N)=O)c(=O)[nH]c2C(F)(F)F)cc1 (centres unmarked) [Example 303, Tert-butyl 3-((4-(5-carbamoyl-6-oxo-2-(trifluoromethyl)-1,6-dihydropyridin-3-yl)phenoxy)methyl)-4-methylpyrrolidine-1-carboxylate]	10 to 25
NC(=O)c1cc(-c2ccc(OCC3COCC(Cn4cccn4)O3)cc2)c(C(F)(F)F)[nH]c1=O (single isomer, unassigned) [Example 376, 5-(4-((6-((1H-pyrazol-1-yl)methyl)-1,4-dioxan-2-yl)methoxy)phenyl)-2-oxo-6-(trifluoromethyl)-1,2-dihydropyridine-3-carboxamide]	5 to 10
C[C@H]1COC[C@H](COc2ccc(-c3cc(C(N)=O)c(=O)[nH]c3C(F)(F)F)cc2)O1 [Example 331, 5-(4-(((2R,6S)-6-methyl-1,4-dioxan-2-yl)methoxy)phenyl)-2-oxo-6-(trifluoromethyl)-1,2-dihydropyridine-3-carboxamide]	10 to 25
Cc1cc(COc2ccc(-c3cc(C(N)=O)c(=O)[nH]c3C(F)(F)F)cc2)no1 [Example 224, 5-(4-((5-methylisoxazol-3-yl)methoxy)phenyl)-2-oxo-6-(trifluoromethyl)-1,2-dihydropyridine-3-carboxamide]	25 to 50

Same assay, conditions: read-out: RNP_Hubei B

SMILES	IC50 [µM]
NC(=O)c1cc(-c2ccc(OCC3CN(CC(F)F)CCO3)cc2)c(C(F)(F)F)[nH]c1=O (centres unmarked) [Example 192, 5-(4-((4-(2,2-difluoroethyl)morpholin-2-yl)methoxy)phenyl)-2-oxo-6-(trifluoromethyl)-1,2-dihydropyridine-3-carboxamide]	25 to 50
NC(=O)c1cc(-c2ccc(OCc3cnc4c(c3)ncn4CC3CC3)cc2)c(C(F)(F)F)[nH]c1=O [Example 175, 5-(4-((3-(cyclopropylmethyl)-3H-imidazo[4,5-b]pyridin-6-yl)methoxy)phenyl)-2-oxo-6-(trifluoromethyl)-1,2-dihydropyridine-3-carboxamide]	25 to 50
COCOc1ccc(-c2cc(C(N)=O)c(=O)[nH]c2C(F)(F)F)cc1 [Example 13, 5-(4-(methoxymethoxy)phenyl)-2-oxo-6-(trifluoromethyl)-1,2-dihydropyridine-3-carboxamide]	25 to 50
NC(=O)c1cc(-c2ccc(OCC3CN(C4COC4)CCCO3)cc2)c(C(F)(F)F)[nH]c1=O (centres unmarked) [Example 196, 5-(4-((4-(oxetan-3-yl)-1,4-oxazepan-2-yl)methoxy)phenyl)-2-oxo-6-(trifluoromethyl)-1,2-dihydropyridine-3-carboxamide]	25 to 50
NC(=O)c1cc(-c2ccc(OCc3ccc(C(F)(F)F)cc3)cc2)c(C(F)(F)F)[nH]c1=O [Example 87, 2-oxo-6-(trifluoromethyl)-5-(4-((4-(trifluoromethyl)benzyl)oxy)phenyl)-1,2-dihydropyridine-3-carboxamide]	1 to 5
NC(=O)c1cc(-c2ccc(OCc3cccc([N+](=O)[O-])c3)cc2)c(C(F)(F)F)[nH]c1=O [Example 54, 5-(4-((3-nitrobenzyl)oxy)phenyl)-2-oxo-6-(trifluoromethyl)-1,2-dihydropyridine-3-carboxamide]	10 to 25
NC(=O)c1cc(-c2cccc(O)c2)c(C(F)(F)F)[nH]c1=O [Example 9, 5-(3-hydroxyphenyl)-2-oxo-6-(trifluoromethyl)-1,2-dihydropyridine-3-carboxamide]	25 to 50
C=CCCC(Oc1ccc(-c2cc(C(N)=O)c(=O)[nH]c2C(F)(F)F)cc1)c1cccnc1 (centres unmarked) [Example 185, 2-oxo-5-(4-((1-(pyridin-3-yl)pent-4-en-1-yl)oxy)phenyl)-6-(trifluoromethyl)-1,2-dihydropyridine-3-carboxamide]	10 to 25
Cc1cc(-c2cc(C(N)=O)c(=O)[nH]c2C(F)(F)F)ccc1CN1CCOCC1 [Example 43, 5-(3-methyl-4-(morpholinomethyl)phenyl)-2-oxo-6-(trifluoromethyl)-1,2-dihydropyridine-3-carboxamide]	1 to 5
NC(=O)c1cc(-c2ccc(CC3(O)CCOCC3)cc2)c(C(F)(F)F)[nH]c1=O [Example 50, 5-(4-((4-hydroxytetrahydro-2H-pyran-4-yl)methyl)phenyl)-2-oxo-6-(trifluoromethyl)-1,2-dihydropyridine-3-carboxamide]	25 to 50
CC(=O)N1CCC(COc2ccc(-c3cc(C(N)=O)c(=O)[nH]c3C(F)(F)F)cc2)CC1 [Example 55, 5-(4-((1-acetylpiperidin-4-yl)methoxy)phenyl)-2-oxo-6-(trifluoromethyl)-1,2-dihydropyridine-3-carboxamide]	25 to 50
NC(=O)c1cc(-c2ccc(OCc3cccc4nonc34)cc2)c(C(F)(F)F)[nH]c1=O [Example 74, 5-(4-(benzo[c][1,2,5]oxadiazol-4-ylmethoxy)phenyl)-2-oxo-6-(trifluoromethyl)-1,2-dihydropyridine-3-carboxamide]	10 to 25
CN1C(COc2ccc(-c3cc(C(N)=O)c(=O)[nH]c3C(F)(F)F)cc2)COCC12COC2 (centres unmarked) [Example 206, 5-(4-((5-methyl-2,8-dioxa-5-azaspiro[3.5]nonan-6-yl)methoxy)phenyl)-2-oxo-6-(trifluoromethyl)-1,2-dihydropyridine-3-carboxamide]	25 to 50
